Here are results for four compounds from paper PMC3465515 (Nuclear medicine and biology, 2012).

Read-outs that look alike come from different tables or passages of the source.

One assay concerns the target T1, human ERα (Homo sapiens, UniProt P03372).
T1 sequence (P03372 1-595): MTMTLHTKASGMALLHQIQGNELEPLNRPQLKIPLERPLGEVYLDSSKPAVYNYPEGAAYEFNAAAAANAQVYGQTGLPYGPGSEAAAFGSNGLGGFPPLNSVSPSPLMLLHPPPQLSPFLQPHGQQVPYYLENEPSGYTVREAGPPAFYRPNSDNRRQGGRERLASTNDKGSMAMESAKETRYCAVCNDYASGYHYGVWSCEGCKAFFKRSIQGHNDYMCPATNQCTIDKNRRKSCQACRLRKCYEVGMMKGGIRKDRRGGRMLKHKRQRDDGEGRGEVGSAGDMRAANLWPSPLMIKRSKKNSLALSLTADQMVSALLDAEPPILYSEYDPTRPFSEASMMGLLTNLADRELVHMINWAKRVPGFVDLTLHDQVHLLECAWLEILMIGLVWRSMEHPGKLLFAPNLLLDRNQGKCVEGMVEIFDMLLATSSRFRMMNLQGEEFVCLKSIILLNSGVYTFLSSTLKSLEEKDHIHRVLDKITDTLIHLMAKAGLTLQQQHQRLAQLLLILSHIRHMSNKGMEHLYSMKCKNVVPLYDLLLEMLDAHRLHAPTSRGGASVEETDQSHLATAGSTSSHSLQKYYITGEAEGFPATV
The assay is described as follows: competitive radiometric binding assay with [3H]estradiol, ERα.

The target of the next assay is human ERβ (Homo sapiens, UniProt Q92731). The assay is described as follows: competitive radiometric binding assay with [3H]estradiol, ERβ. Conditions: for β/α ratio: ratio of RBA ERβ to RBA ERα.
Where [1] appears, read: estradiol = 100, purified full-length human ERα, 18-24 h at 0 °C.
The mark [2] stands for this setting: estradiol = 100, purified full-length human ERβ, 18-24 h at 0 °C.

Sequence of human ERβ (Q92731 whole entry): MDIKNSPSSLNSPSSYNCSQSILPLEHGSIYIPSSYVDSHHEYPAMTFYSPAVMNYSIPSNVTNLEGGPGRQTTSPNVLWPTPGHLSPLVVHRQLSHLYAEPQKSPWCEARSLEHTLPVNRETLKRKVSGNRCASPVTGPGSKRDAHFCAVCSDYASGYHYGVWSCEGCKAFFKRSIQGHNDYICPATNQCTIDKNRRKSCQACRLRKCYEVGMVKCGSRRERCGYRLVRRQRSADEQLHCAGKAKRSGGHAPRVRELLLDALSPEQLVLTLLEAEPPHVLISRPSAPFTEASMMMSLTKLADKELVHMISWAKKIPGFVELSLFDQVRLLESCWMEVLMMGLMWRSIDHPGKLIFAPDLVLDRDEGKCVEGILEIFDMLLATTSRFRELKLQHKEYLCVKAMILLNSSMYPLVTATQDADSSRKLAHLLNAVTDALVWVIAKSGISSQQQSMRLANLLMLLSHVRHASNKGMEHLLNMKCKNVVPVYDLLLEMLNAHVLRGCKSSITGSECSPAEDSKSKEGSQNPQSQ

As for `C=Cc1cc(O)cc2nc(-c3ccc(O)c(F)c3)oc12` [ERB-041], the “Relative Binding Affinity (RBA) ERα” value on human ERα amounted to 0.007 ± 0.001%. On human ERβ, the “Relative Binding Affinity (RBA) ERβ” value is given as 3.22 ± 0.91% and the β/α ratio stood at 460.
With `N#C[C@H](c1ccc(O)cc1)[C@@H](CCF)c1ccc(O)cc1` [FEDPN], the “Relative Binding Affinity (RBA) ERα” value on human ERα (setting [1]) turned out to be 0.43 ± 0.09%. Further, the “Relative Binding Affinity (RBA) ERβ” value on human ERβ (setting [2]) was found to be 8.74 ± 1.87%. The β/α ratio on human ERβ is listed as 20.
As to `C=C[C@@]12CCc3cc(O)ccc3[C@H]1CC[C@@]1(C)[C@H]2CC[C@@H]1O` [compound 1, 8β-Vinyl-estra-1,3,5(10)-triene-3,17β-diol], the “Relative Binding Affinity (RBA) ERα” value on human ERα (setting [1]) turned out to be 0.30%. Besides, the “Relative Binding Affinity (RBA) ERβ” value at human ERβ (setting [2]) was found to be 105%. Besides, at human ERβ, the β/α ratio was 350.
Take `C[C@]12CC[C@@H]3c4ccc(O)cc4CC[C@@]3(CCF)[C@@H]1CC[C@@H]2O` [compound 6, 8β-(2-Fluoroethyl)estra-1,3,5(10)-trien-3,17β-diol]: on human ERα (setting [1]), the “Relative Binding Affinity (RBA) ERα” value is 0.046 ± 0.005%. Also, the “fold lower affinity than parent 8BVE2, ERα” value at human ERα (vs 8β-vinylestradiol) was around 10 fold. Moreover, the “Relative Binding Affinity (RBA) ERβ” value on human ERβ (setting [2]) amounted to 8.27 ± 0.98%. In addition, at human ERβ, the β/α ratio was determined as 179. For the same compound, the “fold lower affinity than parent 8BVE2, ERβ” value on human ERβ (vs 8β-vinylestradiol) is listed as around 10 fold.
